Measurements from patent US10231956B2, “3-(1H-pyrrolo[3,2-C]pyridin-2-YL)-1 H-pyrazolo[4,3-B]pyridines and therapeutic uses thereof” (Samumed, LLC, priority 2015, dated 2019).

Key:
Type in all cases: cell-based
[1] = tested on: Wnt activity (Sp5-Luc reporter, SW480 colon carcinoma cells); experiment: Sp5-Luc reporter gene screening assay for Wnt activity in SW480 cells; conditions: Homo sapiens, luminescence, overnight incubation
Text: The screening assay for Wnt activity is described as follows. Reporter cell lines can be generated by stably transducing cancer cell lines (e.g., colon cancer) or primary cells (e.g., IEC-6 intestinal cells) with a lentiviral construct that includes a Wnt-responsive promoter driving expression of the firefly luciferase gene.
SW480 colon carcinoma cells were transduced with a lentiviral vector expressing luciferase with a human Sp5 promoter consisting of a sequence of eight TCF/LEF binding sites. SW480 cells stably expressing the Sp5-Luc reporter gene and a hygromycin resistance gene were selected by treatment with 150 μg/mL of hygromycin for 7 days. These stably transduced SW480 cells were expanded in cell culture and used for all further screening activities. Each compound was dissolved in DMSO as a 10 mM stock and used to prepare compound source plates. Serial dilution (1:3, 10-point dose-response curves starting from 10 μM) and compound transfer was performed using the ECHO 550 (Labcyte, Sunnyvale, Calif.) into 384-well white solid bottom assay plates (Greiner Bio-One) with appropriate DMSO backfill for a final DMSO concentration of 0.1%. For Sp5-Luc reporter gene assays, the cells were plated at 4,000 cells/well in 384-well plates with medium containing 1% fetal bovine serum and incubated overnight at 37° C. and 5% CO2. Following incubation, 20 μl of BrightGlo luminescence reagent (Promega) was added to each well of the 384-well assay plates. The plates were placed on an orbital shaker for 2 min and then luminescence was quantified using the Envision (Perkin Elmer) plate reader. Readings were normalized to DMSO only treated cells, and normalized activities were utilized for EC50 calculations using the dose-response log (inhibitor) vs. response-variable slope (four parameters) nonlinear regression feature available in GraphPad Prism 5.0 (or Dotmatics). For EC50 of >10 μM, the percent inhibition at 10 μM is provided.

IL-6 = IL-6 inhibition in LPS-stimulated THP-1 cells (HTRF); conditions: Homo sapiens, LPS 500 ng/mL, 22 hours, IL6 HTRF
Procedure: Human Monocyte Cell Culture: Human monocyte cell line (THP-1 cells; Catalog # TIB-202, ATCC, Manassas, Va.) were cultured in Roswell Park Memorial Institute (RPMI) 1640 Medium (Catalog #21870-100, Buffalo, N.Y.) with 1% L-glutamine, 1% HEPES, 1% Sodium Pyruvate, 2% Sodium Bicarbonate supplemented with 100 units/mL penicillin, 50 μg/mL streptomycin, 2-mercaptoethanol (0.05 mM) [basal medium] and 10% fetal bovine serum (Catalog #16140089, Life Technologies, Carlsbad, Calif.) at 37° C. and 5% CO2.
Compound Screening: THP-1 cells were cultured in basal media with 1% FBS for 24 hours before the start of the assay. Each compound was dissolved in DMSO as a 10 mM stock and used to prepare compound source plates. Serial dilution (1:3, 10-point dose-response curves starting from 1 μM) and compound transfer was performed using the ECHO 550 (Labcyte, Sunnyvale, Calif.) into 384-well white low volume assay plates (Greiner Bio-One) with appropriate DMSO backfill for a final DMSO concentration of 0.1%. THP-1 cells were plated at 5000 cells/well in the 384-well plates and incubated at 37° C. for 2 h. 500 ng/mL of LPS was added after 2 hours and cells were incubated for another 22 hours at 37° C. Plates were spun in a centrifuge for 1 minute at 10,000 rpm and a mixture of anti-IL6 XL665, and anti-IL6 Cryptate diluted in reconstitution buffer (Cisbio Inc.) was added to each well. Following incubation for 3 hrs at room temperature, Homogeneous Time-Resolved Fluorescence (HTRF) was measured using the Envision (Perkin Elmer) at 665 nm and […]. The ratio of fluorescence at 665 nm to 620 nm was used as a readout for IL6 quantification. All samples were processed in duplicate. Readings were normalized to DMSO treated cells and normalized activities were utilized for EC50 calculations using the dose-response log (inhibitor) vs. response-variable slope (four parameters) nonlinear regression feature available in GraphPad Prism 5.0 (or Dotmatics). For EC50 of >10 μM, the percent inhibition at 10 μM is provided.

[2] = tested on: primary human fibroblasts derived from IPF patients (LL29 cells); experiment: Inhibition of fibrotic process: αSMA staining in TGF-β1 treated LL29 fibroblasts; conditions: Fibroblast, 96 h, TGF-β1 20 ng/mL, 4 days, % cells positive for αSMA
Text: Representative compounds were screened using primary human fibroblasts (derived from IPF patients) treated with TGF-β1 to determine their ability to inhibit the fibrotic process.
Human Fibroblast Cell Culture: Primary human fibroblasts derived from IPF patients (LL29 cells) [^1Xiaoqiu Liu, et. al., “Fibrotic Lung Fibroblasts Show Blunted Inhibition by cAMP Due to Deficient cAMP Response Element-Binding Protein Phosphorylation”, Journal of Pharmacology and Experimental Therapeutics (2005), 315(2), 678-687; ^2Watts, K. L., et. al., “RhoA signaling modulates cyclin D1 expression in human lung fibroblasts; implications for idiopathic pulmonary fibrosis”, Respiratory Research (2006), 7(1), 88] were obtained from American Type Culture Collection (ATCC) and expanded in F12 medium supplemented with 15% Fetal Bovine Serum and Penicillin/Streptomycin.
Compound Screening: Each compound was dissolved in DMSO as a 10 mM stock and used to prepare compound source plates. Serial dilution (1:2, 11-point dose-response curves from […]) and compound transfer was performed using the ECHO 550 (Labcyte, Sunnyvale, Calif.) into 384-well clear bottom assay plates (Greiner Bio-One) with appropriate DMSO backfill for a final DMSO concentration of 0.1%. LL29 cells are plated at 1,500 cells/well in 80 μL/well F12 medium supplemented with 1% Fetal Bovine Serum. One hour after addition of the cells, TGF-β1 (Peprotech; 20 ng/mL) was added to the plates to induce fibrosis (ref. 1 and 2 above). Wells treated with TGF-β1 and containing DMSO were used as controls. Cells were incubated at 37° C. and 5% CO2 for 4 days. Following incubation for 4 days, SYTOX green nucleic acid stain (Life Technologies [Thermo Fisher Scientific]) was added to the wells at a final concentration of 1 μM and incubated at room temperature for 30 min. Cells were then fixed using 4% formaldehyde (Electron Microscopy Sciences), washed 3 times with PBS followed by blocking and permeabilization using 3% Bovine Serum Albumin (BSA; Sigma) and 0.3% Triton X-100 (Sigma) in PBS. Cells were then stained with antibody specific to α-smooth muscle actin (αSMA; Abcam) (ref. 1 and 2 above) in 3% Bovine Serum Albumin (BSA; Sigma) and 0.3% Triton X-100 (Sigma) in PBS, and incubated overnight at 4° C. Cells were then washed 3 times with PBS, followed by incubation with Alexa Flor-647 conjugated secondary antibody (Life Technologies [Thermo Fisher Scientific]) and DAPI at room temperature for 1 hour. Cells were then washed 3 times with PBS and plates were sealed for imaging. αSMA staining was imaged by excitation at 630 nm and emission at 665 nm and quantified using the Compartmental Analysis program on the CellInsight CX5 (Thermo Scientific). Dead or apoptotic cells were excluded from analysis based on positive SYTOX green staining. % of total cells positive for αSMA were counted in each well and normalized to the average of 11 wells treated with TGF-β1 on the same plate using Dotmatics' Studies Software. The normalized averages (fold change over untreated) of 3 replicate wells for each compound concentration were used to create dose-responses curves and EC50 values were calculated using non-linear regression curve fit in the Dotmatics' Studies Software. For EC50 of >10 μM, the percent inhibition at 10 μM is provided.

SW480 colon cancer cells = experiment: Cell viability assay (CellTiter-Blue) in SW480 colon cancer cells; conditions: Homo sapiens, 96 h, four days, CellTiter-Blue
Procedure: Representative compounds were screened using the following assay procedure to assess the effect on cell viability as described below.
Each compound was dissolved in DMSO as a 10 mM stock and used to prepare compound source plates. Serial dilution (1:3, 8-point dose-response curves from 10 μM to 0.0045 μM) and compound transfer was performed using the ECHO 550 (Labcyte, Sunnyvale, Calif.) into 96-well clear bottom, black-walled plates (Corning-Costar).
Approximately 2×10^3 SW480 colon cancer cells were seeded into each well and allowed to incubate in the presence or absence of compound for four days at 37° C./5% CO2. Eight replicates of DMSO-treated cells served as controls and cells treated with compound were performed in duplicate.
After incubation, 20 μL of CellTiter-Blue (Promega) was added to each well allowed to incubate for approximately 3 hours. This reagent was a buffered solution which contains resazurin, metabolically active cells were able to reduce rezarurin (blue) into resorufin (pink) which was highly fluorescent. This measured fluorescence was used as a readout for cell viability.
After incubation, the plates were read at Ex 560 nm Em 590 nm (Cytation 3, BioTek). Dose-response curves were generated and EC50 concentration values were calculated using non-linear regression curve fit in the GraphPad Prism (San Diego, Calif.) or Dotmatics' Studies Software (Bishops Stortford, UK). For EC50 of >10 μM, the percent inhibition at 10 μM is provided.

EC50 [1]: 150 nM
EC50 (IL-6): 1790 nM
EC50 (SW480 colon cancer cells): 457 nM
SMILES: Oc1cncc(-c2ccc3[nH]nc(-c4cc5c(-c6cccs6)nccc5[nH]4)c3n2)c1 [Compound 709, 5-(3-(4-(Thiophen-2-yl)-1H-pyrrolo[3,2-c]pyridin-2-yl)-1H-pyrazolo[4,3-b]pyridin-5-yl)pyridin-3-ol]
EC50 [2]: 34 nM
